Experimental data from PubChem BioAssay AID179 (DTP/NCI, 2004).
Active and inactive are the calls of the source.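 Rule for the calls: active = compounds giving half or more protection of infected cells from virus-caused growth loss, again on retest; inactive = the rest.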

System: CEM cells HIV-1 protection, formazan growth assay
Experiment: NCI AIDS Antiviral Assay
Details: for IC50: measured here: growth of uninfected CEM cells
Summary of the method: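 Screen of anti-HIV-1 activity in human CEM cells using a formazan-based growth measurement at five drug concentrations. Hits with 50% or greater protection were repeated, and confirmation required reproducible complete protection.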

SMILES | outcome | EC50 [µM] | IC50 [µM]
CC1=CCC[C@@]2(C)C(CC[C@@H]2C(C)/C=C/C(C)C)c2ccc(cc2C(=O)O)C[C@@H](O)CC1 (some centres not stated) | inactive | – | –
CN(C)CCNC(c1ccccc1)C(O)c1ccccc1 (configuration not stated) | inactive | – | –
CN(C)NC(=O)NC12CC3CC(CC(C3)C1)C2 | inactive | – | –
C[N+]12C=CC=C1C(N1CCCC1)c1scc(-c3ccc(F)cc3)c12 (configuration not stated) | – | > 200 | 24.5
CCc1ccc(/C(C#N)=C/c2ccccc2Cl)cc1 | – | > 200 | 27.5
COc1cc(C2c3cc(O)c(OC)cc3C[C@H]3C(=O)OCC23)ccc1O (some centres not stated) | – | > 141 | > 141
O=C1OCCN1N1C(=O)CC2(CCCCC2)C1=O | – | > 200 | > 200
OC(c1cccnc1)C(F)(F)c1nc2ccccc2o1 (configuration not stated) | – | > 200 | > 200
Cc1cc(=O)n2c(n1)Nc1ccc(Cl)cc1C2 | – | > 52.5 | > 52.5
CC1OC(OC23C(=O)C[C@](C)(O)CC2(O)C=CC2C3=c3oc(-c4ccc(O)cc4)c4c3=C(C(=O)C(C3CC(OC5CCC(OC6CC(O)C(O)C(C)O6)C(C)O5)C(O)C(C)O3)=C4)C2O)CCC1O (some centres not stated) | – | > 19.1 | > 19.1
Nc1nc2c(ncn2C2COC(CO)O2)c(=O)[nH]1 (configuration not stated) | – | 30.2 | > 200
CC(=O)/C(=C/N1CCNC1=S)C(=O)Nc1ccc(Cl)cc1 | inactive | – | –
CNc1nc(N)[nH]c(=O)c1N=O | inactive | – | –
COc1ccc(C2=Cc3nc2c(-c2ccccc2)c2ccc([nH]2)c(-c2ccccc2)c2nc(c(-c4ccccc4)c4ccc([nH]4)c3-c3ccccc3)C=C2)cc1 | – | > 100 | > 100
C(=N/N=C(N/N=C/C1CNCCN1)N/N=C/C1CNCCN1)/C1CNCCN1 (configuration not stated) | – | > 631 | > 631
COc1ccc(/C=C\c2cc(OC)c(OC)c(OC)c2)cc1O | – | > 214 | 0.0692
N#Cc1c([N+](=O)[O-])cc(C(F)(F)F)cc1[N+](=O)[O-] | inactive | – | –
COc1cc2c(OC)cc1CSCc1sc(C)c(c1Br)CSC2 | – | > 11.5 | > 11.5
CC[N+](C)(C)c1ccc(C(=C2C=CC(=[N+](C)C)C=C2)c2ccc(N(C)C)cc2)cc1 | inactive | – | –
O=C1NN(c2ccccc2)C(=O)C2C3c4ccccc4C(c4ccccc43)C12 (configuration not stated) | – | > 200 | > 200
COc1ccc(C(c2ccc3cccnc3c2O)c2ccc3cccnc3c2O)cc1 | inactive | – | –

SMILES | outcome | EC50 [µM] | IC50 [µM]
Nc1nc(N)c(N=O)c(=O)[nH]1.[Cd] | – | > 200 | 1.74
COc1ccc2nc3ccccc3c(NCCCN(C)C)c2c1[N+](=O)[O-] | – | > 200 | 0.589
Oc1ccc([C@H]2c3c(O)cc(O)cc3C3c4c(cc(O)cc4[C@@H]2[C@H]2c4cc(O)cc5c4C(c4cc(O)cc(O)c4[C@@H]2c2ccc(O)cc2)[C@@H](c2ccc(O)cc2)O5)O[C@@H]3c2ccc(O)cc2)cc1 (some centres not stated) | – | > 100 | 13.8
Cc1nc2c(nc1C)C(=O)C1=C(C2=O)C2C=CC1CC2 | – | > 70.8 | 1.62
COc1cc(N(CCC#N)CCC#N)ccc1/C(N=Nc1ccc(C(=O)O)cc1)=N/NC(=O)c1cc(Br)ccc1O | – | > 200 | 26.3
COc1cc2c(cc1OC)C1Cc3ccccc3CN1CCC2 (configuration not stated) | – | > 200 | 141
COc1ccc2c(CN3CCCCC3CO)cc3cc(OC)c(OC)cc3c2c1 (configuration not stated) | inactive | – | –
O=C1c2ccccc2-c2nnc(-c3ccccc3)cc21 | – | > 100 | 8.32
O=C1OC(Cl)C(N=P(c2ccccc2)(c2ccccc2)c2ccccc2)=C1Cl (configuration not stated) | – | > 12.3 | 9.33
COc1cc(NCc2ccc3nc(N)nc(N)c3c2C)cc(OC)c1OC (tested in a mixture with another compound) | – | > 4.47 | 0.00363
O=C(OCC(Cl)(Cl)Cl)N1CC[C@@H](C2CCCCC2)C1 | – | > 200 | 52.5
O=c1[nH][nH]c(=O)n1Cc1ccccc1Cn1c(=O)[nH][nH]c1=O | – | > 100 | > 100
N#Cc1c(-c2ccccc2)cc(-c2ccc(Cl)cc2)[nH]c1=S | – | > 200 | 33.9
S=c1nc2sc3c(c2c(Nc2ccc(Cl)cc2)[nH]1)CCCC3 | – | 43.7 | 132
COC(=O)/C(=N\NC(=O)C[N+](C)(C)C)C(C(=O)OC)C(=O)C(=O)Nc1ccccc1C(N)=O (configuration not stated) | – | > 501 | > 501
O=[N+]([O-])c1ccc(/C=C/c2ccc(N=Nc3ccc(/C=C/c4ccc([N+](=O)[O-])cc4S(=O)(=O)O)c(S(=O)(=O)O)c3)cc2S(=O)(=O)O)c(S(=O)(=O)O)c1 | – | 12.6 | > 200
CC/C(=N\NS(=O)(=O)c1ccccc1)c1ccccc1 | inactive | – | –
Cn1c(=O)c2c(ncn2Cc2ccc(O)c([N+](=O)[O-])c2)n(C)c1=O | – | > 200 | > 100
CCOc1ccc(NC(=S)NC=C(C(N)=O)C(N)=O)cc1 | – | > 200 | > 200
O=C1[C@@H]2C3SC(c4cc5ccccc5cc43)[C@@H]2C(=O)N1c1ccccc1 | – | > 72.4 | > 72.4
COc1cccc(NC(=O)CC(=O)N2N=C(C)C(N=Nc3ccc(C(=O)O)cc3)C2=O)c1 (configuration not stated) | – | > 200 | 63.1

SMILES | outcome | EC50 [µM] | IC50 [µM]
O=S1(=O)[C@H](c2ccccc2)c2c(-c3ccccc3)sc(-c3ccccc3)c2[C@@H]1c1ccccc1 | inactive | – | –
CCCCCCCCCCCCCCCC[N+](C)(C)CCCS(=O)(=O)[O-] | inactive | – | –
CO[C@H]1C[C@@H]2CC[C@@H](C)[C@@](O)(O2)C(=O)C(=O)N2CCCC[C@H]2C(=O)O[C@H]([C@H](C)C[C@@H]2CC[C@@H](O)[C@H](OC)C2)CC(=O)[C@H](C)C=C(C)[C@@H](O)[C@@H](OC)C(=O)[C@H](C)C[C@H](C)/C=C/C=C/C=C1C | – | > 14.1 | 7.59
O=C(/C=C/c1ccc(Cl)cc1)c1ccc(Cl)s1 | – | > 200 | –
CC1(C)CC(C2CC(C)(C)CC(C)(C)[C@H]2O)[C@@H](O)C(C)(C)C1 (some centres not stated) | – | > 12 | > 12
CC(C)(C)OC(=O)C1C(=O)C(C(=O)OC(C)(C)C)C2(C)C(C(=O)OC(C)(C)C)C(=O)C(C(=O)OC(C)(C)C)C12C (configuration not stated) | – | > 31.6 | 11.2
N#Cc1c(NC(=O)C(F)(F)F)sc2c3c(=O)c4ccccc4c(=O)c=3oc3ccccc3c12 | – | > 100 | 17.4
O=C1C(=Cc2ccccc2[N+](=O)[O-])N=C(c2ccccc2)N1n1c(-c2ccccc2)nc2ccccc2c1=O | – | > 200 | 29.5
CCC1(OC(=O)CN)C(=O)OCc2c1cc1n(c2=O)Cc2cc3ccccc3nc2-1 (configuration not stated) | – | > 10 | 0.00692
O=C1c2ccccc2C=c2c1nc1c(O)ccc3cccc2c31 | – | > 100 | 15.5
O=C1NC(CO)(CO)CO1 | – | > 200 | > 200
CC1(C)C(=O)C(=Cc2ccco2)C1=O | – | > 100 | > 100
O=S1(=O)c2ccccc2NC(c2ccc3ccccc3c2)CC1c1ccccc1F (configuration not stated) | – | > 6.46 | > 6.46
O=[N+]([O-])c1ccc(-c2ccc(/C=N/n3c(-c4ccc(Cl)cc4)n[nH]c3=S)o2)cc1 | – | > 1.23 | > 1.23
c1ccc(C2=NCCN2)c(C2=NCCN2)c1 | – | > 200 | > 200
CCNc1nc2ccccc2nc1NCC | – | > 200 | > 200
CC(=O)N1C(c2[nH]c3ccccc3c2-c2ccccc2)CCN1c1ccccc1 (configuration not stated) | – | > 200 | 74.1
CNC1C(OC2C(OC3C(O)C(O)C(N=C(N)N)C(O)C3N=C(N)N)OC(C)C2(O)/C=N/NC(N)=S)OC(CO)C(O)C1O (configuration not stated) | inactive | – | –
CCC1(CC)SCc2nc3ccccc3n21 | – | > 200 | 63.1
CC(C)(C)C(=O)O[C@@H]1COC2C(O)COC21 (some centres not stated) | – | > 1070 | 977
O=S1(=O)C=C(c2ccccc2)C2(c3ccccc3)C=NNC21 (configuration not stated) | – | > 200 | > 200

SMILES | outcome | EC50 [µM] | IC50 [µM]
c1cc[c]([Pb]([c]2ccccc2)[c]2ccccc2)cc1 | inactive | – | –
O=S(=O)(NCCSSCCNS(=O)(=O)c1cccc2cccnc12)c1cccc2cccnc12 | – | > 200 | 10.7
CC(C)(CCCCC(C)(C)NCC1COc2ccccc2O1)NCC1COc2ccccc2O1 (configuration not stated) | – | > 200 | 7.24
O=C1CSc2ccnc(=O)n21 | – | > 200 | > 200
O=C1NC2(CCCCC2)N=C2C(Cl)CCCC12Cl (configuration not stated) | – | > 200 | > 200
CC1c2c(cc(OC(=O)c3cccc(S(=O)(=O)F)c3)nc2OC(=O)c2cccc(S(=O)(=O)F)c2)C(=O)N1Cc1ccccc1 (configuration not stated) | – | > 11.2 | 1.86
CCOP(=O)(OCC)/C(C#N)=C/c1ccc2ccccc2c1 | – | > 22.9 | > 22.9
COC(=O)C(=O)C1CSC2=C(CS(=O)(=O)c3ccccc32)C1=O (configuration not stated) | – | > 200 | > 200
O=C1C=CC2O[C@H](c3ccccc3)[C@@H](O)C2O1 (some centres not stated) | – | > 1070 | 6.46
O=C(CC1(O)C(=O)Nc2c(Cl)cccc21)c1ccccc1 (configuration not stated) | – | > 832 | 158
CCOC(=O)C1=C(O)c2c(OC)ccc(OC)c2C(=O)C1=O | – | > 427 | > 427
c1cc2c3c(c1)[I+]c1cccc(c1-3)[I+]2 | – | > 100 | 0.12
CCOC(=O)c1ccc(-n2cnc(-c3ccc([N+](=O)[O-])cc3)c2)cc1 | – | 95.5 | > 200
C[C@H]1O[C@@H](c2c(O)ccc3ccccc23)C[C@@H](N(C)C)C1O (some centres not stated) | – | > 200 | 97.7
c1ccc2c(c1)Nc1ccccc1O2 | – | > 97.7 | 23.4
CCOC(=O)CCCSCCCC1(CCCSCCCC(=O)OCC)OCCO1 | – | > 39.8 | > 39.8
CCCCCCCC(=O)[O-].CCCCCCCC(=O)[O-].N.N.N.N.[Co+3].[O-][Cl+3]([O-])([O-])[O-] | inactive | – | –
CCOc1cccc(C=Nc2ccccc2SSc2ccccc2N=Cc2cccc(OCC)c2O)c1O | – | > 100 | 5.13
CN1CCN(C(=S)N(C)C(=O)c2cccs2)CC1 | – | > 891 | > 891
COC(=O)[C@@]1(O)CC(C)C=C1C=O (some centres not stated) | – | > 1350 | 28.8
[N-]=[N+]=Nc1cccc(-c2n[nH]c(Cl)cc2=O)c1 | – | > 200 | > 200
